For one assay, the target named is human mPGES-1 (Homo sapiens (Human), UniProt O14684). Description: mPGES-1 inhibiting activity (microsome fractions, PGE2 by HTRF). The assay is classed as biochemical. The settings on record: microsomes from CHO-K1 cells transfected with human mPGES-1; PGH2 1 μM, 4° C., 60 seconds; read-out: mPGES-1 Inhibition IC50. The essentials:
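PGE2 formation read by HTRF after 60 s at 4 °C with 1 μM PGH2 substrate, following 20 min compound preincubation (1% DMSO) with human mPGES-1 microsomes from transfected CHO-K1 cells. Buffer: potassium phosphate, reduced glutathione, pH 7.4; IC50 from activity relative to enzyme-free blank.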

Another assay deals with A549 cells. Briefly: Inhibition of PGE2 production in A549 cell (IL-1β stimulated). The assay is classed as cell-based, human. The note with it: Homo sapiens, A549, 24 h, IL-1β 5 ng/well, PGE2 in culture medium. The essentials:
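A549 cells preincubated 60 min with compound in RPMI/3% FBS (final DMSO 0.10), then stimulated with IL-1β (5 ng/well) for 24 h at 37 °C. PGE2 measured by HTRF and PGF2α by EIA in medium; IC50 from inhibition relative to stimulated minus unstimulated production.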

Counter-ions that a name gives are not always drawn. A value given as a limit tells only on which side of the number the result lay.

human mPGES-1, sequence (O14684 whole entry): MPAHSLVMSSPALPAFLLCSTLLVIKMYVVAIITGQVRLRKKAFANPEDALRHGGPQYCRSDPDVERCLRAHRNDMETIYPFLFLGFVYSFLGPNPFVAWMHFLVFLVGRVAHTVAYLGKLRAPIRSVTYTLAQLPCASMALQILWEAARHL

Turning to `COCc1nc2c(C(=O)Nc3cccc(Cl)c3C)cc(NC(=O)c3c(Cl)cccc3C(F)(F)F)cc2[nH]1` [Example 113, N-(3-Chloro-2-methylphenyl)-6-({[2-chloro-6-(trifluoromethyl)phenyl]carbonyl}amino)-2-(methoxymethyl)-1H-benzimidazole-4-carboxamide hydrochloride], the IC50 (in general, the concentration that gives 50% inhibition) at human mPGES-1 was not above 0.1 nM; in the assay on A549 cells it was 1.2 nM.
Taken in the same sequence, the figures for `Cc1c(Cl)cccc1NC(=O)c1cc(NC(=O)c2ccccc2C(F)(F)F)cc2[nH]c(C3(C)CC3)nc12` [Example 85, N-(3-chloro-2-methylphenyl)-2-(1-methylcyclopropyl)-6-({[2-(trifluoromethyl)phenyl]carbonyl}amino)-1H-benzimidazole-4-carboxamide] were 0.5 nM and 3.7 nM.
Taken in the same sequence, the figures for `Cc1c(Cl)cccc1NC(=O)c1cc(NC(=O)c2ccccc2C(F)(F)F)cc2[nH]c(CC(C)C)nc12` [Example 59, N-(3-Chloro-2-methylphenyl)-2-(2-methylpropyl)-6-({[2-(trifluoromethyl)phenyl]carbonyl}amino)-1H-benzimidazole-4-carboxamide hydrochloride] were 2.1 nM and 12.9 nM.
With `COCc1nc2c(C(=O)NCc3ncccc3C(F)(F)F)cc(NC(=O)c3ccccc3C(F)(F)F)cc2[nH]1` [Example 42, 2-(Methoxymethyl)-6-({[2-(trifluoromethyl)phenyl]carbonyl}amino)-N-{[3-(trifluoromethyl)pyridin-2-yl]methyl}-1H-benzimidazole-4-carboxamide dihydrochloride], the figures for the IC50 at human mPGES-1 and in the assay with A549 cells were 28.5 nM and 1860 nM, respectively.
Regarding `COCc1nc2c(C(=O)Nc3cccc(Cl)c3C)cc(NC(=O)c3c(F)cccc3Cl)cc2[nH]1` [Example 92, 6-{[(2-Chloro-6-fluorophenyl)carbonyl]amino}-N-(3-chloro-2-methylphenyl)-2-(methoxymethyl)-1H-benzimidazole-4-carboxamide hydrochloride], the 50% inhibitory concentration (IC50) at human mPGES-1 amounted to 6.7 nM; with A549 cells, 32.2 nM.
Consider `CCCC(C)(C)c1nc2c(C(=O)Nc3cccc(Cl)c3C)cc(NC(=O)c3ccccc3C(F)(F)F)cc2[nH]1` [Example 84, N-(3-Chloro-2-methylphenyl)-2-(2-methylpentan-2-yl)-6-({[2-(trifluoromethyl)phenyl]carbonyl}amino)-1H-benzimidazole-4-carboxamide hydrochloride], for which the IC50 at human mPGES-1 turned out to be 0.8 nM; in the assay on A549 cells it was 6.5 nM.
As to `COCc1nc2c(C(=O)Nc3cccc(Cl)c3C)cc(NC(=O)c3ccccc3C(F)(F)F)cc2n1C` [Example 90, N-(3-Chloro-2-methylphenyl)-2-(methoxymethyl)-1-methyl-6-({[2-(trifluoromethyl)phenyl]carbonyl}amino)-1H-benzimidazole-4-carboxamide], the figures for the IC50 on human mPGES-1 and in the assay with A549 cells were 118 nM and 348 nM, respectively.
Taken in the same sequence, the figures for `COCc1nc2c(C(=O)Nc3cccc(Cl)c3C)cc(NC(=O)c3cc(C)ccc3Cl)cc2[nH]1` [Example 108, N-(3-Chloro-2-methylphenyl)-6-{[(2-chloro-5-methylphenyl)carbonyl]amino}-2-(methoxymethyl)-1H-benzimidazole-4-carboxamide hydrochloride] were 11.5 nM and 87.9 nM.
`Cc1c(Cl)cccc1NC(=O)c1cc(NC(=O)c2ccccc2C(F)(F)F)cc2[nH]c(CC(=O)N(C)C)nc12` [Example 133, N-(3-Chloro-2-methylphenyl)-2-[2-(dimethylamino)-2-oxoethyl]-6-({[2-(trifluoromethyl)phenyl]carbonyl}amino)-1H-benzimidazole-4-carboxamide hydrochloride]: the concentration for half-maximal inhibition (IC50) is 7 nM at human mPGES-1 and 488 nM in the assay on A549 cells.
On to `Cc1c(Cl)cccc1NC(=O)c1cc(NC(=O)c2ccccc2C(F)(F)F)cc2[nH]c(C3CCCC3)nc12` [Example 124, N-(3-Chloro-2-methylphenyl)-2-cyclopentyl-6-({[2-(trifluoromethyl)phenyl]carbonyl}amino)-1H-benzimidazole-4-carboxamide hydrochloride], for which the 50% inhibitory concentration (IC50) on human mPGES-1 stood at 2.2 nM; in the assay with A549 cells, 3.2 nM.
Turning to `COC(C)(C)CNc1nc2c(C(=O)Nc3cccc(Cl)c3C)cc(NC(=O)c3ccccc3C(F)(F)F)cc2[nH]1` [Example 177, N-(3-Chloro-2-methylphenyl)-2-[(2-methoxy-2-methylpropyl)amino]-6-({[2-(trifluoromethyl)phenyl]carbonyl}amino)-1H-benz imidazole-4-carboxamide hydrochloride], the half-inhibitory concentration (IC50) was found to be 8.3 nM on human mPGES-1 and 45.2 nM in the assay with A549 cells.
For the compound `Cc1nc2c(C(=O)NC3CCCC3)cc(NC(=O)c3ccccc3C(F)(F)F)cc2[nH]1` [Example 15, N-Cyclopentyl-2-methyl-6-({[2-(trifluoromethyl)phenyl]carbonyl}amino)-1H-benzimidazole-4-carboxamide], the half-inhibitory concentration (IC50) worked out at 37.4 nM on human mPGES-1 and 465 nM in the assay on A549 cells.
With `COCc1nc2c(C(=O)Nc3ccc(C(C)(C)C)cc3)cc(NC(=O)c3ccccc3C(F)(F)F)cc2[nH]1` [Example 27, N-(4-tert-Butylphenyl)-2-(methoxymethyl)-6-({[2-(trifluoromethyl)phenyl]carbonyl}amino)-1H-benzimidazole-4-carboxamide hydrochloride], the figures for the concentration for half-maximal inhibition (IC50) at human mPGES-1 and with A549 cells were 2.4 nM and 16 nM, respectively.
As to `CCCNC(=O)c1cc(NC(=O)c2ccccc2C(F)(F)F)cc2[nH]c(COC)nc12` [Example 215, 2-(Methoxymethyl)-N-propyl-6-({[2-(trifluoromethyl)phenyl]carbonyl}amino)-1H-benzimidazole-4-carboxamide hydrochloride], the IC50 at human mPGES-1 stood at 140 nM; in the assay with A549 cells, 772 nM.
Turning to `COCc1nc2c(C(=O)Nc3ccccc3Cc3ccccc3)cc(NC(=O)c3ccccc3C(F)(F)F)cc2[nH]1` [Example 229, N-(2-Benzylphenyl)-2-(methoxymethyl)-6-({[2-(trifluoromethyl)phenyl]carbonyl}amino)-1H-benzimidazole-4-carboxamide hydrochloride], the IC50 amounted to 2.3 nM on human mPGES-1 and 39 nM in the assay with A549 cells.
On to `Cc1c(Cl)cccc1NC(=O)c1cc(NC(=O)c2c(F)cccc2Cl)cc2[nH]c([C@H]3CCCO3)nc12` [Example 127, 6-{[(2-Chloro-6-fluorophenyl)carbonyl]amino}-N-(3-chloro-2-methylphenyl)-2-[(2R)-tetrahydrofuran-2-yl]-1H-benzimidazole-4-carboxamide hydrochloride], for which the concentration for half-maximal inhibition (IC50) at human mPGES-1 amounted to 6.3 nM; in the assay on A549 cells, 144 nM.
For the compound `Cc1c(Cl)cccc1NC(=O)c1cc(NC(=O)c2ccccc2C(F)(F)F)cc2[nH]c(N)nc12` [Example 157, 2-Amino-N-(3-chloro-2-methylphenyl)-6-({[2-(trifluoromethyl)phenyl]carbonyl}amino)-1H-benzimidazole-4-carboxamide hydrochloride], the half-maximal inhibitory concentration (IC50) at human mPGES-1 turned out to be 3.9 nM; in the assay with A549 cells, 10900 nM.
Regarding `Cc1c(Cl)cccc1NC(=O)c1cc(NC(=O)c2ccccc2C(F)(F)F)cc2[nH]c(N[C@H](CO)C(C)C)nc12` [Example 170, N-(3-Chloro-2-methylphenyl)-2-{[(2S)-1-hydroxy-3-methylbutan-2-yl]amino}-6-({[2-(trifluoromethyl)phenyl]carbonyl}amino-1H-benzimidazole-4-carboxamide hydrochloride], the IC50 at human mPGES-1 amounted to 3.2 nM; with A549 cells, 17.8 nM.
As for `CCOc1nc2c(C(=O)NCc3ccccc3C(F)(F)F)cc(NC(=O)c3ccccc3C(F)(F)F)cc2[nH]1` [Example 56, 2-Ethoxy-N-[2-(trifluoromethyl)benzyl]-6-({[2-(trifluoromethyl)phenyl]carbonyl}amino)-1H-benzimidazole-4-carboxamide], the IC50 was determined as 7.5 nM at human mPGES-1 and 85 nM with A549 cells.
As to `Cc1ccc(NC(=O)c2cc(NC(=O)c3c(Cl)cccc3Cl)cc3[nH]c(N(C)C)nc23)cc1Cl` [Example 206, N-(3-Chloro-4-methylphenyl)-6-{[(2,6-dichlorophenyl)carbonyl]amino}-2-(dimethylamino)-1H-benzimidazole-4-carboxamide hydrochloride], the results for the IC50 at human mPGES-1 and in the assay on A549 cells were 3.2 nM and 74.5 nM, respectively.
As for `Cc1c(Cl)cccc1NC(=O)c1cc(NC(=O)c2ccccc2C(F)(F)F)cc2[nH]c(NC[C@@H]3CCCO3)nc12` [Example 168, N-(3-Chloro-2-methylphenyl)-2-{[(2S)-tetrahydrofuran-2-ylmethyl]amino}-6-({[2-(trifluoromethyl)phenyl]carbonyl}amino)-1H-benzimidazole-4-carboxamide hydrochloride], the 50% inhibitory concentration (IC50) at human mPGES-1 was found to be 3.2 nM; in the assay with A549 cells, 23.9 nM.
Take `Cc1c(Cl)cccc1NC(=O)c1cc(NC(=O)c2ccccc2C(F)(F)F)cc2[nH]c(NC[C@H]3CCCO3)nc12` [Example 169, N-(3-Chloro-2-methylphenyl)-2-{[(2R)-tetrahydrofuran-2-ylmethyl]amino}-6-({[2-(trifluoromethyl)phenyl]carbonyl}amino)-1H-benzimidazole-4-carboxamide hydrochloride]: the concentration for half-maximal inhibition (IC50) came to 2.4 nM on human mPGES-1 and 88.6 nM in the assay on A549 cells.
On to `CNCc1nc2c(C(=O)Nc3cccc(Cl)c3C)cc(NC(=O)c3ccccc3C(F)(F)F)cc2[nH]1` [Example 62, N-(3-Chloro-2-methylphenyl)-2-[(methylamino)methyl]-6-({[2-(trifluoromethyl)phenyl]carbonyl}amino)-1H-benzimidazole-4-carboxamide dihydrochloride], for which the IC50 at human mPGES-1 is 11 nM; with A549 cells it was 51.6 nM.

(Values after patent US9216968B2, “Heterocyclic derivative and pharmaceutical drug” (NIPPON SHINYAKU CO., LTD., priority 2011, dated 2015).)
